Source: PMC4718634, “Murine GPRC6A Mediates Cellular Responses to L-Amino Acids, but Not Osteocalcin Variants” (PLoS ONE, 2016)
Entries after “also recorded” stand apart in the source; their conditions may differ. Where two headings read alike, the source gives them in different places.

Columns and labels:
[1] = target: T1, mGPRC6A (mouse GPRC6A) (Mus musculus, UniProt Q8K4Z6); test: Label-free cell impedance (xCELLigence), tetracycline-induced FlpIn-TREx-HEK293-mGPRC6A cells; type: cell-based
T1 sequence (Q8K4Z6 21-928): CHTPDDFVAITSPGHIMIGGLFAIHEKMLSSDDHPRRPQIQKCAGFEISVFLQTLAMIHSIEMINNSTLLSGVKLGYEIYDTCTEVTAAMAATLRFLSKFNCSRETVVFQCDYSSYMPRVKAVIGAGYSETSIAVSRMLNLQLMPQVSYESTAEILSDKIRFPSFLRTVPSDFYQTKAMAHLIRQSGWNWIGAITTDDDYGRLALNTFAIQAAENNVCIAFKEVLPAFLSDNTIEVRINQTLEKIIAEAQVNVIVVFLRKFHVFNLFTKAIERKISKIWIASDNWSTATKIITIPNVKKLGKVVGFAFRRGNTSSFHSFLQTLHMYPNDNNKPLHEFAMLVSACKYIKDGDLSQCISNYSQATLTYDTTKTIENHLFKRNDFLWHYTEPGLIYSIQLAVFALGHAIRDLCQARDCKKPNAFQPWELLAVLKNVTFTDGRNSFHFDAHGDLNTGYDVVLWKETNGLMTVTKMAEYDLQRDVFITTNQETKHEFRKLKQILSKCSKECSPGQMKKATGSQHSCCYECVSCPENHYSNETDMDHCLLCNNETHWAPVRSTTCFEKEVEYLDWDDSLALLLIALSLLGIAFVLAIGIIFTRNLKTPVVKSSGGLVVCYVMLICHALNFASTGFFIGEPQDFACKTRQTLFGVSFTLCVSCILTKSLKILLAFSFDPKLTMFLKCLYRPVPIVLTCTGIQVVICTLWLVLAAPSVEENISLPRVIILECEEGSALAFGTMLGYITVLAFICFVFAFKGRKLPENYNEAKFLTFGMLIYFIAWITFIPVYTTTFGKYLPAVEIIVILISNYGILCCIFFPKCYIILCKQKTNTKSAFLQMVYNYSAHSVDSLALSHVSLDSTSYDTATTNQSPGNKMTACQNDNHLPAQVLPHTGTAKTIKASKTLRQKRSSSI
Method: 2.5 x 10^7 FlpIn-TREx-HEK293-mGPRC6A cells were seeded in a T175 flask and incubated overnight at 37°C in 5% CO2. Cells were then transfected with 35 μg of plasmid DNA (GαqG66D) with Lipofectamine LTX according to manufacturer's instructions, then incubated for 24h at 37°C in 5% CO2. Prior to the experiment, a background reading for each E-plate 96 (Bio-Rad, CA, USA) was measured after addition of 100 μl DMEM + 10% FBS per well. Cells were recovered using Versene and seeded at a 10^5 cells/well density in 200 μl DMEM + 10% FBS (containing 1 μg/ml tetracycline where indicated). Cells were washed 2 x 2 h in HBSS buffer (pH 7.2) containing 20 mM HEPES, 1 mM CaCl2 and 0.1% BSA (w/v) in a total volume of 180 μl. Test compounds (20 μl at 10x final concentration) were added to the plate and cell impedance was monitored for 3 h. Cell index was normalised to the buffer response (minus the baseline response at zero time point).
Concentration-response data were analysed using a three or four parameter logistic function (Motulsky & Christopoulos, 2004) to generate estimates of agonist potency (LogEC50). Data for all HEK293 assays represent the mean ± SEM of at least three independent experiments (except cell impedance, n = 2). For GLP-1 release, the data represent mean ± SEM of three to five independent experiments (except for OCN, wash; n = 2). For insulin release assays, data represent the mean ± SEM of three independent experiments (except for islet studies; n = 2). Insulin release data were normalised to the response to vehicle in either low or high [glucose]. Statistical analysis for GLP-1 release data were performed by one-way ANOVA, followed by Sidak’s multiple comparisons test (treating wash / no wash datasets separately). Statistical analyses for insulin release data were performed by two-way ANOVA (with [glucose] and drug treatment as group variables), followed by Sidak’s multiple comparisons test. Where only high [glucose] groups were evaluated, statistical analysis was by one-way ANOVA followed by Sidak’s multiple comparisons test.

[2] = target: T1, mGPRC6A (mouse GPRC6A); test: Cyclic AMP accumulation, FlpIn-TREx-HEK293-mGPRC6A cells; type: cell-based
Method: pcDNA 5/FRT/TO constructs were isogenically integrated into a FlpIn-TREx-HEK293 cell line (Life Technologies). FlpIn-TREx-HEK293-mGPRC6A and FlpIn-TREx-HEK293-hGPRC6A cells were then selected using 600 μg/ml hygromycin and 5 μg/ml blasticidin and grown in culture medium consisting of Dulbecco’s Modified Eagle Medium (DMEM), supplemented with 10% (v/v) foetal bovine serum (FBS) at 37°C in 5% CO2 and were sub-cultured in a 1:3 ratio every 3–4 days. Cells were cultured overnight in the presence of 1 μg/ml tetracycline to induce GPRC6A expression. […] 48 h after transfection, cells were selected using 3 μg/ml puromycin and grown as above.
HEK293-mGPRC6A cells were seeded at a density of 10^5 cells per well into PDL-coated 96-well plates and incubated overnight in DMEM, supplemented with 10% FBS (v/v) at 37°C in 5% CO2. Cells were then incubated in 90 μl of stimulation buffer (HBSS containing 5 mM HEPES, 0.1% BSA (w/v), 0.5 mM IBMX; pH 7.4) for 30 min at 37°C. Test compounds (10 μl at 10 x final) were added and cells were incubated for an additional 30 min at 37°C. The medium was removed and cells were incubated in 50 μl of ice-cold 100% ethanol. Once evaporated, 100 μl of lysis buffer (5 mM HEPES, 0.1% BSA (w/v), 0.3% Tween-20; pH 7.4) was added to the cells and samples were stored at -20°C until further analysis. Samples were analysed using the Alphascreen® cAMP assay kit (Perkin Elmer) following manufacturer instructions. Briefly, 10 μl of lysates were added to a 384-well Optiplate. After addition of 5 μl of acceptor bead mix, plate was incubated at RT for 30 min followed by addition of 15 μl of donor bead mix. After overnight (16 h) incubation at RT, plates were read using the Envision plate reader.

[3] = test system: mC6A; conditions: cited from earlier work
Text: Supplement pone.0146846.s004.docx, table 1 | column: Functional assay

Compound	EC50 ([1]; tetracycline-induced, GαqG66D, xCELLigence, n = 2, read-out: pEC50, cell impedance (converted)) [µM]	cell impedance (cell index) response ([1]; tetracycline-induced, xCELLigence, Fig 4)	stimulation of cAMP accumulation ([2]; 30 min, 0.5 mM IBMX, Alphascreen, Fig 3A)	inhibition of forskolin-stimulated cAMP ([2]; forskolin 3 μM, Fig 3A)	cAMP response ([3]; ref [3] (supplement list))	cAMP response ([3]; ref [13] (supplement list))	pERK response ([3]; ref [13] (supplement list))	xCELLigence response (summary) ([1]; S1 Table)	cAMP response (summary) ([2]; S1 Table)	IP-One HTRF response to EC25 L-Orn + OCN ([3]; + GqG66D, ref [13] (supplement list))	cAMP accumulation response ([3]; ref [5] (supplement list))	IP-One HTRF response ([3]; ref [13] (supplement list))
NCCC[C@H](N)C(=O)O [L-ornithine]	63.1	only mGPRC6A-expressing cells responded to L-ornithine; also recorded: increases cellular impedance only in tetracycline-induced cells	no detectable modulation of cAMP accumulation	neither L-ornithine nor OCN variants inhibited cAMP levels stimulated by forskolin; also recorded: Neither L-ornithine nor OCN variants inhibit	[^3H]IP turnover - co-transfection with Gαqs5, GαqG66D, Gαq or GαqG66Ds5 enabled response to L-aa but Gαqi, Gαqz, Gαqo did not cAMP – no increase or decrease in response to L-Orn	no response	response					
OCN: osteoblast-derived peptide, osteocalcin; variant not specified at the place (YLYQWLGAPVPYPDPLEPRREVCELNPDCDELADHIGFQEAYRRFYGPV; UniProt P02818 52-100, looked up)						no response	No specific response	No response	no response	No response	cAMP accumulation in response to OCN	No response
